Data taken from patent US6297241A, “Carbamate derivatives of diaryl 1,3,4-oxadiazolone” (Bristol-Myers Squibb Company, priority 2000, dated 2001).

Legend:
[1] = test system: cloned mammalian (mSlo or hSlo) BK channels; test: Increase of cloned BK-mediated outward current in Xenopus oocytes, two-electrode voltage clamp; type: cell-based; details: 1 μM; at least 5 oocytes; mSlo or hSlo expressed in Xenopus oocytes
[2] = test system: non-BK native currents in the oocytes; test: Effect on non-BK native currents (current remaining with IBTX) in oocytes; details: at the tested concentration; IBTX 50 nM
cortical infarct volume = test: Focal stroke model: permanent left MCA and CCA occlusion, temporary right CCA occlusion; type: in vivo; details: Wistar rat; 10 μg/kg i.v. single bolus two hours after MCA occlusion; measured 24 hours after MCAO
Procedure: To determine the ability of the compounds of the present invention to reduce cell loss resulting from neuronal ischemia, a standard focal cerebral ischemia is induced by permanent occlusion of the left middle cerebral artery (MCA) and common carotid artery (CCA) with one hour occlusion of the right CCA in the Wistar rat. The surgeries are performed using the sub-temporal approach of A. Tamura, et al., J. Cereb. Blood Flow Metab., 1, pp. 53-60, (1981) and its modifications [K. Osborne, et al., J. Neurol Neurosurg. Psychiatry, 50, pp. 402-410 (1987) and S. Menzies, et al., Neurosurgery, 31, pp.100-107, (1992).]
The compound of Example 1 was evaluated in the focal stroke model involving permanent occlusion of the left MCA (MCAO) and CCA (CCAO) and temporary occlusion of the right CCA in the Wistar rat. This procedure results in a reliably large neocortical infarct volume that is measured by means of vital dye exclusion in serial slices through the brain 24 hours after MCAO. In the present test, compounds were administered using an i.v. or i.p. route of administration two hours after occlusion.

[3] = Rapid screen of prodrug hydrolysis and drug release in plasma (HPLC); type: in vitro ADME; details: fresh rat plasma, 37° C., 10 μg/mL, stock in PEG-400, analysis 5 minutes after incubation
Procedure: A rapid screen to determine the ability of prodrugs to hydrolyze and release the drug (compound of Example 1) is conducted as follows. A 1 mg/mL stock solution of the prodrug is prepared in distilled water or acetonitrile or PEG-400. Plasma from freshly collected rat or human blood is used in this assay. To 1 mL of plasma at 37° C. was added 10 μL of stock solution of prodrug and mixed gently. Immediately after the mixing, 100 μL of plasma was removed and quenched with 300 μL of acetonitrile (Zero time sample). Samples were also obtained at 30 minutes and quenched immediately. The quenched samples were centrifuged to obtain a clear supernatant for analysis. The stock solution, T=0 and T=30 samples were analyzed by a HPLC assay that separates the drug from the prodrug. Based on the relative peak areas of prodrug and drug in these samples, different prodrugs are characterized as fast, moderate and slow release agents. For example, in this model, the compound of Example 2 was dissolved in PEG-400 at a concentration of 1 mg/mL and incubated at 10 μg/mL in fresh rat plasma at 37° C.

## O=c1oc(-c2ccc(C(F)(F)F)cc2)nn1Cc1cc(Cl)ccc1O [Example 1]
[1]
  BK current as % of control of IBTX-sensitive current: 126%
[2]
  Effect on non-BK native currents in the oocytes: did not effect non-BK native currents
Cortical infarct volume
  Reduction of cortical infarct volume vs vehicle-treated (water) control: about 18%

## O=C(O)CC(NC(=O)Oc1ccc(Cl)cc1Cn1nc(-c2ccc(C(F)(F)F)cc2)oc1=O)C(=O)O (stereo not shown) [Example 2, N-[[4-Chloro-2-[[5-[4-(trifluoromethyl)phenyl]-2. 3-dihydro-2-oxo-1,3,4-oxadiazol-3-yl]methyl]phenoxy]carbonyl]aspartic acid]
[3]
  Conversion of prodrug to the drug (compound of Example 1) in plasma: conversion of the compound of Example 2 to the compound of Example 1
